The molecules below were run against Human Constitutive (Hu C-20S) β5 Active Subunit (Homo sapiens, UniProt P28074) (assay: IC50 determination, human constitutive 20S proteasome β5c (suc-LLVY-AMC hydrolysis)). Settings: Table 3; IC50 against human constitutive β5 active subunit; read-out: Hu-C20S β5.
Format: biochemical

| SMILES | IC50 |
| --- | --- |
| CC[C@H]1CCCCN1C(=O)C[C@H](NC(=O)CCC(C)C)C(=O)N[C@@H](C)c1nc2ccccc2[nH]1 [CEN-28, N—((S)-1-(((S)-1-(1H-Benzo[d]imidazol-2-yl)ethyl)amino)-4-((S)-2-ethylpiperidin-1-yl)-1,4-dioxobutan-2-yl)-4-methylpentanamide] | 14.8 µM |
| CC[C@H]1CCCCN1C(=O)C[C@H](NC(=O)CCC(C)(C)C)C(=O)N[C@@H](C)c1nc2ccccc2[nH]1 [CEN-29, N—((S)-1-(((S)-1-(1H-Benzo[d]imidazol-2-yl)ethyl)amino)-4-((S)-2-ethylpiperidin-1-yl)-1,4-dioxobutan-2-yl)-4,4-dimethylpentanamide] | 6.9 µM |
| Cc1ncc(C(=O)N[C@@H](CC(=O)N2CCCC[C@@H]2C)C(=O)N[C@@H](C)c2nc3c(F)cccc3[nH]2)s1 [CEN-30, N—((S)-1-(((S)-1-(4-Fluoro-1H-benzo[d]Imidazol-2-yl)ethyl)amino)-4-((S)-2-methylpiperidin-1-yl)-1,4-dioxobutan-2-yl)-2-methylthiazole-5-carboxamide] | 4.5 µM |
| CC(C)CCC(=O)N[C@@H](CC(=O)N1CCCC[C@@H]1C)C(=O)NCc1nc2ccccc2[nH]1 [CEN-31, N—((S)-1-(((1H-Benzo[d]imidazol-2-yl)methyl)amino)-4-((S)-2-methylpiperidin-1-yl)-1,4-dioxobutan-2-yl)-4-methylpentanamide] | 17.6 µM |
| CC(C)CCC(=O)N[C@@H](CC(=O)N1CCCC[C@@H]1C)C(=O)N[C@@H](C)c1nc2ccccc2[nH]1 [CEN-32, N—((S)-1-(((S)-1-(1H-Benzo[d]imidazol-2-yl)ethyl)amino)-4-((S)-2-methylpiperidin-1-yl)-1,4-dioxobutan-2-yl)-4-methylpentanamide] | 23.5 µM |
| C[C@H](NC(=O)[C@H](CC(=O)N1CCC[C@@H]1C)NC(=O)CCC(C)(C)C)c1nc2ccccc2[nH]1 [CEN-33, N—((S)-1-(((S)-1-(1H-Benzo[d]imidazol-2-yl)ethyl)amino)-4-((S)-2-methylpyrrolidin-1-yl)-1,4-dioxobutan-2-yl)-4,4-dimethylpentanamide] | 16.5 µM |
| CC(C)CCC(=O)N[C@@H](CC(=O)N1CCCC[C@@H]1C)C(=O)N[C@H](C)c1nc2ccccc2[nH]1 [CEN-34, N—((S)-1-(((R)-1-(1H-Benzo[d]imidazol-2-yl)ethyl)amino)-4-((S)-2-methylpiperidin-1-yl)-1,4-dioxobutan-2-yl)-4-methylpentanamide] | 15.6 µM |
| Cc1cc(C(=O)N[C@@H](CC(=O)N2CCCC[C@@H]2C)C(=O)NC(C)c2nc3ccccc3[nH]2)no1 (stereo partly drawn) [CEN-35, N-((2S)-1-((1-(1H-Benzo[d]imidazol-2-yl)ethyl)amino)-4-((S)-2-methylpiperidin-1-yl)-1,4-dioxobutan-2-yl)-5-methylisoxazole-3-carboxamide] | 19.6 µM |
| Cc1cc(C(=O)N[C@@H](CC(=O)N2CCCC[C@@H]2C)C(=O)N[C@@H](C)c2nc3ccccc3[nH]2)no1 [CEN-36, N—((S)-1-(((S)-1-(1H-Benzo[d]imidazol-2-yl)ethyl)amino)-4-((S)-2-methylpiperidin-1-yl)-1,4-dioxobutan-2-yl)-5-methylisoxazole-3-carboxamide] | 17.5 µM |
| C[C@@H](NC(=O)[C@H](CC(=O)N1CCCC[C@@H]1C)NC(=O)CCC(C)(C)C)c1nc2ccccc2[nH]1 [CEN-37, N—((S)-1-(((R)-1-(1H-Benzo[d]imidazol-2-yl)ethyl)amino)-4-((S)-2-methylpiperidin-1-yl)-1,4-dioxobutan-2-yl)-4,4-dimethylpentanamide] | 17.3 µM |
| C[C@H](NC(=O)[C@H](CC(=O)N1CCCC[C@@H]1C)NC(=O)C1CC(C)(C)C1)c1nc2c(F)cccc2[nH]1 [CEN-39, N—((S)-1-(((S)-1-(4-Fluoro-1H-benzo[d]Imidazol-2-yl)ethyl)amino)-4-((S)-2-methylpiperidin-1-yl)-1,4-dioxobutan-2-yl)-3,3-dimethylcyclobutane-1-carboxamide] | 7.6 µM |
| CC(C)C1CC1C(=O)N[C@@H](CC(=O)N1CCCC[C@@H]1C)C(=O)N[C@@H](C)c1nc2c(F)cccc2[nH]1 (stereo partly drawn) [CEN-40, N—((S)-1-(((S)-1-(4-Fluoro-1H-benzo[d]Imidazol-2-yl)ethyl)amino)-4-((S)-2-methylpiperidin-1-yl)-1,4-dioxobutan-2-yl)-2-isopropylcyclopropane-1-carboxamide] | 2.7 µM |
| C[C@H](NC(=O)[C@H](CC(=O)N1CCCC[C@@H]1C)NC(=O)CCC(C)(C)C)c1nc2c(F)cccc2[nH]1 [CEN-41, N—((S)-1-(((S)-1-(4-Fluoro-1H-benzo[d]Imidazol-2-yl)ethyl)amino)-4-((S)-2-methylpiperidin-1-yl)-1,4-dioxobutan-2-yl)-4,4-dimethylpentanamide] | 4.8 µM |
| C[C@H](NC(=O)[C@H](CC(=O)N1CCCC[C@@H]1C)NC(=O)C1CC2(CCC2)C1)c1nc2c(F)cccc2[nH]1 [CEN-42, N—((S)-1-(((S)-1-(4-Fluoro-1H-benzo[d]imidazol-2-yl)ethyl)amino)-4-((S)-2-methylpiperidin-1-yl)-1,4-dioxobutan-2-yl)spiro[3.3]heptane-2-carboxamide] | 27.4 µM |
| C[C@H](NC(=O)[C@H](CC(=O)N1CCCC[C@@H]1C)NC(=O)C1CC2(COC2)C1)c1nc2cccc(F)c2[nH]1 [CEN-43, N—((S)-1-(((S)-1-(7-Fluoro-1H-benzo[d]imidazol-2-yl)ethyl)amino)-4-((S)-2-methylpiperidin-1-yl)-1,4-dioxobutan-2-yl)-2-oxaspiro[3.3]heptane-6-carboxamide] | 13.8 µM |
| C[C@@H](NC(=O)[C@H](CC(=O)N1CCCC[C@@H]1C)NC(=O)CC1CC(C)(C)C1)c1nc2c(F)cccc2[nH]1 [CEN-44, (S)-2-(2-(3,3-Dimethylcyclobutyl)acetamido)-N—((R)-1-(4-fluoro-1H-benzo[d]imidazol-2-yl)ethyl)-4-((S)-2-methylpiperidin-1-yl)-4-oxobutanamide] | 0.9 µM |
| CC[C@H]1CCCCN1C(=O)C[C@H](NC(=O)CCC(C)C)C(=O)N[C@@H](C)c1nc2c(F)cc(F)cc2[nH]1 [CEN-45, N—((S)-1-(((S)-1-(4,6-Difluoro-1H-benzo[d]Imidazol-2-yl)ethyl)amino)-4-((S)-2-ethylpiperidin-1-yl)-1,4-dioxobutan-2-yl)-4-methylpentanamide] | 4.1 µM |
| CC1CC(C(=O)N[C@@H](CC(=O)N2CCC[C@@H]2c2ccccc2)C(=O)NC(C)c2nc3ccccc3[nH]2)C1 (stereo partly drawn) [CEN-46, N-((2S)-1-((1-(1H-Benzo[d]imidazol-2-yl)ethyl)amino)-1,4-dioxo-4-((R)-2-phenylpyrrolidin-1-yl)butan-2-yl)-3-methylcyclobutane-1-carboxamide] | 8.4 µM |
| CC(C)CCC(=O)N[C@@H](CC(=O)N1CCC[C@@H]1c1ccccc1)C(=O)NC(C)c1nc2ccccc2[nH]1 (stereo partly drawn) [CEN-47, N-((2S)-1-((1-(1H-Benzo[d]imidazol-2-yl)ethyl)amino)-1,4-dioxo-4-((R)-2-phenylpyrrolidin-1-yl)butan-2-yl)-4-methylpentanamide] | 29.4 µM |
| CC(C)CCC(=O)N[C@@H](CC(=O)N1CCC[C@@H]1c1ccccc1)C(=O)N[C@@H](C)c1nc2ccccc2[nH]1 [CEN-48, N—((S)-1-(((S)-1-(1H-Benzo[d]imidazol-2-yl)ethyl)amino)-1,4-dioxo-4-((R)-2-phenylpyrrolidin-1-yl)butan-2-yl)-4-methylpentanamide] | 50 µM |
| CC(C)CCC(=O)N[C@@H](CC(=O)N1CCC[C@@H]1c1ccccc1)C(=O)N[C@H](C)c1nc2ccccc2[nH]1 [CEN-49, N—((S)-1-(((R)-1-(1H-Benzo[d]imidazol-2-yl)ethyl)amino)-1,4-dioxo-4-((R)-2-phenylpyrrolidin-1-yl)butan-2-yl)-4-methylpentanamide] | 50 µM |
| C[C@H](NC(=O)[C@H](CC(=O)N1CCCC[C@@H]1C)NC(=O)OCc1ccccc1)c1nc2c(F)cccc2[nH]1 [CEN-50, Benzyl ((S)-1-(((S)-1-(4-Fluoro-1H-benzo[d]Imidazol-2-yl)ethyl)amino)-4-((S)-2-methylpiperidin-1-yl)-1,4-dioxobutan-2-yl)carbamate] | 14.8 µM |
| C[C@H](NC(=O)[C@H](CC(=O)N1CCCC1C1CC1)NC(=O)C1CC2(COC2)C1)c1nc2cccc(F)c2[nH]1 (stereo partly drawn) [CEN-51, N-((2S)-4-(2-Cyclopropylpyrrolidin-1-yl)-1-(((S)-1-(7-fluoro-1H-benzo[d]imidazol-2-yl)ethyl)amino)-1,4-dioxobutan-2-yl)-2-oxaspiro[3.3]heptane-6-carboxamide] | 15 µM |
| Cc1cc(C(=O)N[C@@H](CC(=O)N2CCC[C@@H]2c2ccccc2)C(=O)NC(C)c2nc3ccccc3[nH]2)no1 (stereo partly drawn) [CEN-52, N-((2S)-1-((1-(1H-Benzo[d]imidazol-2-yl)ethyl)amino)-1,4-dioxo-4-((R)-2-phenylpyrrolidin-1-yl)butan-2-yl)-5-methylisoxazole-3-carboxamide] | 7.5 µM |
| Cc1cc(C(=O)N[C@@H](CC(=O)N2CCC[C@@H]2c2ccccc2)C(=O)N[C@@H](C)c2nc3ccccc3[nH]2)no1 [CEN-53, N—((S)-1-(((S)-1-(1H-Benzo[d]imidazol-2-yl)ethyl)amino)-1,4-dioxo-4-((R)-2-phenylpyrrolidin-1-yl)butan-2-yl)-5-methylisoxazole-3-carboxamide] | 9.7 µM |
| C[C@H](NC(=O)[C@H](CC(=O)N1CCC[C@@H]1c1ccccc1)NC(=O)CCC(C)(C)C)c1nc2ccccc2[nH]1 [CEN-54, N—((S)-1-(((S)-1-(1H-Benzo[d]imidazol-2-yl)ethyl)amino)-1,4-dioxo-4-((R)-2-phenylpyrrolidin-1-yl)butan-2-yl)-4,4-dimethylpentanamide] | 16.6 µM |
| C[C@H](NC(=O)[C@H](CC(=O)N1CCCC[C@@H]1C)NC(=O)[C@H]1C[C@@H]1c1ccccc1)c1nc2c(F)cccc2[nH]1 [CEN-55, (1S,2S)—N—((S)-1-(((S)-1-(4-Fluoro-1H-benzo[d]Imidazol-2-yl)ethyl)amino)-4-((S)-2-methylpiperidin-1-yl)-1,4-dioxobutan-2-yl)-2-phenylcyclopropane-1-carboxamide] | 12.3 µM |
| C[C@H](NC(=O)[C@H](CC(=O)N1CCCC[C@@H]1C)NC(=O)N(C)Cc1ccccc1)c1nc2c(F)cccc2[nH]1 [CEN-56, (S)-2-(3-Benzyl-3-methylureido)-N—((S)-1-(4-fluoro-1H-benzo[d]imidazol-2-yl)ethyl)-4-((S)-2-methylpiperidin-1-yl)-4-oxobutanamide] | 17.2 µM |
